Consider 1 compound from ChEMBL document CHEMBL5579901, “Discovery of Novel [1,2,4]Triazolo[1,5-a]pyrimidine Derivatives as Novel Potent S-Phase Kinase-Associated Protein 2 (SKP2) Inhibitors for the Treatment of Cancer” (J Med Chem, 2024).

Data set [1] concerns the target Cyclin-dependent kinases regulatory subunit 1/S-phase kinase-associated protein 2 (Homo sapiens, UniProt Q13309). The data set can be described thus: Inhibition of GST-tagged SKP2 (unknown origin) binding to His6-tagged CKS1 (unknown origin) preincubated with SKP2 for 10 mins followed by CKS1 addition for 20 mins and measured after by HTRF method. It counts as protein assay.

The test system of data set [2] is PC-3. The experiment in a line: Inhibition of cell proliferation in human PC-3 cells incubated for 24 to 72 hrs by MTT assay. In kind it is functional, cell-based. The settings on record: dose 2-50 µM, time 24-72 hrs.
The subject of data set [3] is PC-3. The data set can be described thus: Inhibition of DNA synthesis in human PC-3 cells incubated for 24 hrs by EdU staining based fluorescence microscopic analysis. It counts as functional, cell-based.
The test system of data set [4] is MGC-803. The data set can be described thus: Induction of cell cycle arrest in human MGC-803 cells assessed as cells at G0/G1 phase at 5 uM incubated for 36 hrs by PI staining based flow cytometry (reference value: 57.1%). It counts as functional.
The test system of data set [5] is MGC-803. The experiment in a line: Induction of cell cycle arrest in human MGC-803 cells assessed as cells at G2/M phase at 5 uM incubated for 36 hrs by PI staining based flow cytometry (reference value: 20.6%). In kind it is functional.
Data set [6] deals with MGC-803. The data set can be described thus: Induction of cell cycle arrest in human MGC-803 cells assessed as cells at G2/M phase at 15 uM incubated for 36 hrs by PI staining based flow cytometry (reference value: 20.6%). In kind it is functional.
The subject of data set [7] is PC-3. The experiment in a line: Induction of cell cycle arrest in human PC-3 cells assessed as cells at G0/G1 phase at 15 uM incubated for 12 hrs by PI staining based flow cytometry (reference value: 55.1%). In kind it is functional.
In data set [8] the test system is PC-3. The experiment in a line: Induction of cell cycle arrest in human PC-3 cells assessed as cells at G0/G1 phase at 15 uM incubated for 48 hrs by PI staining based flow cytometry (reference value: 55.1%). In kind it is functional.
Data set [9] concerns MGC-803. The experiment in a line: Induction of cell cycle arrest in human MGC-803 cells assessed as cells at G0/G1 phase at 15 uM incubated for 6 hrs by PI staining based flow cytometry (reference value: 57.9%). It counts as functional.
Data set [10] deals with MGC-803. The data set can be described thus: Induction of cell cycle arrest in human MGC-803 cells assessed as cells at S phase at 15 uM incubated for 6 hrs by PI staining based flow cytometry (reference value: 19.6%). It counts as functional.
Data set [11] relates to MGC-803. The experiment in a line: Induction of cell cycle arrest in human MGC-803 cells assessed as cells at G2/M phase at 15 uM incubated for 24 hrs by PI staining based flow cytometry (reference value: 20.8%). It counts as functional.
Data set [12] deals with MGC-803. The data set can be described thus: Induction of cell cycle arrest in human MGC-803 cells assessed as cells at S phase at 15 uM incubated for 48 hrs by PI staining based flow cytometry (reference value: 19.6%). In kind it is functional.
Data set [13] has as its system MGC-803. The data set can be described thus: Upregulation of p21 protein expression in human MGC-803 cells at 5 to 15 uM incubated for 48 hrs by Western blotting analysis. It counts as functional, cell-based. Conditions: dose 5-15 µM.
Data set [14] has as its system MGC-803. The experiment in a line: Upregulation of p21 protein expression in human MGC-803 cells at 15 uM by Western blotting analysis. In kind it is functional, cell-based. The settings on record: time 6-48 hrs, TDE = time-dependent effect.
Data set [15] is described as follows: Toxicity against NOD-SCID mouse assessed as change in spleen morphology at 25 to 50 mg/kg, IG administered for 21 days by H and E staining based assay. It counts as organism-based. Conditions: in vivo, po, 504 h, dose 25-50 mg/kg, time 21 day.
Data set [16] is described as follows: Toxicity against NOD-SCID mouse assessed as change in lung morphology at 25 to 50 mg/kg, IG administered for 21 days by H and E staining based assay. It counts as organism-based. The settings on record: in vivo, po, 504 h, dose 25-50 mg/kg, time 21 day.
Data set [17] is described as follows: Half-life in Sprague-Dawley rat at 50 mg/kg, po measured upto 24 hrs by LC/MS-MS analysis. It counts as ADME, organism-based. The settings on record: in vivo.

Active and inactive are the calls of the source. No cut-off for these calls is given here.

Sequence of Cyclin-dependent kinases regulatory subunit 1/S-phase kinase-associated protein 2 (P61024 whole entry): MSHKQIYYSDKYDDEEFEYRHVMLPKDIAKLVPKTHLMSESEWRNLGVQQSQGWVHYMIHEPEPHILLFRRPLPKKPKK
Sequence of Cyclin-dependent kinases regulatory subunit 1/S-phase kinase-associated protein 2 (Q13309 whole entry): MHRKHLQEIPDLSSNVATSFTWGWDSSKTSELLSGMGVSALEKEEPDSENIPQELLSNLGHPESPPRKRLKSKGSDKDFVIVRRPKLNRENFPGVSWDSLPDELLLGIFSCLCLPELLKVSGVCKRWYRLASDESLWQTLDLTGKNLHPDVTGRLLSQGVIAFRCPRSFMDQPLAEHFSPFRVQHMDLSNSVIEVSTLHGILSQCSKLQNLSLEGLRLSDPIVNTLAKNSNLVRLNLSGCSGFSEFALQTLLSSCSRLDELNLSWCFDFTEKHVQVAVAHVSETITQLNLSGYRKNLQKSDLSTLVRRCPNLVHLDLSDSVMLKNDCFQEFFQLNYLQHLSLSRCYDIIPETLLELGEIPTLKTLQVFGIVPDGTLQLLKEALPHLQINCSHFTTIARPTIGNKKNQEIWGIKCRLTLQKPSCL

For the compound `COc1ccc(-c2cc(C)nc3nc(SCc4ccc(Br)cc4)nn23)c(OC)c1`, the half-inhibitory concentration (IC50) in data set [1] was 4.86 µM. Further, the inhibition entry with PC-3 [2] and in the data set with PC-3 [3] was “Dose-Dependent Effect” each time. Moreover, the Activity was found to be 49.8% with MGC-803 [4]; 23.2% in the data set with MGC-803 [5]; 14.4% with MGC-803 [6]; 48.3% in the data set with PC-3 [7]; 36.9% with PC-3 [8]; 49.7% with MGC-803 [9]. The Activity with MGC-803 [10] was 26.8%; in the data set with MGC-803 [11], 16.1%; in the data set on MGC-803 [12] it was 37.3%; with MGC-803 [14], “Tde”; in data set [15], “Non-Toxic”; in [16], “Non-Toxic”. Further, the result with MGC-803 [13] was Active. The half-life in data set [17] was 9.1 h.
